The values that follow are results of earlier work, collected in PubChem BioAssay AID1259409 (Chemical Carcinogenesis Research Information System (CCRIS), 2018).

The data set relates to rodent chemically induced tumor inhibition, incidence and multiplicity. In words: CCRIS tumor inhibitor studies. Particulars: Route [Inhibitor]: ORAL. From the text:
The CCRIS database contains chemical records with carcinogenicity, mutagenicity, tumor promotion, and tumor inhibition test results. It was developed by the National Cancer Institute (NCI). Data are derived from studies cited in primary journals, current awareness tools, NCI reports, and other sources. Test results have been reviewed by experts in carcinogenesis and mutagenesis.
CCRIS provides historical information from the years 1985 - 2011. It is no longer updated.
This is an archive assay for CCRIS tumor inhibitor studies.

Consider `O=C1O[C@H]([C@@H](O)CO)C(O)=C1O`, for which the “tumour outcome (control, treated, inhibition, significance)” value is, setting by setting: (Carcinogen: 1,2-DIMETHYLHYDRAZINE, 540-73-8, Dose [Inhibitor]: 0.3% IN DRINKING WATER BEGINNING POST LAST CARCINOGEN DOSE AND CONTINUING FOR DURATION OF STUDY (STUDY DURATION: 55 WK), Species: MOUSE, Strain/Sex: CBA/FEMALE, Target Tissue: Type of Lesion: UTERUS (ENDOMETRIUM): STROMAL SARCOMA, Dose [Carcinogen]: 8 MG/KG BW IN WATER 1/WK FOR 8 WK, Promoter: ESTRADIOL PROPIONATE, 113-38-2) 13/40 (33%), 3/40 (8%), 77%, not calculated; (Carcinogen: 1,2-DIMETHYLHYDRAZINE, 540-73-8, Dose [Inhibitor]: 1% IN 20% FAT DIET DAILY STARTING 2 WK BEFORE CARCINOGEN TREATMENT AND CONTINUING FOR DURATION OF STUDY (STUDY DURATION:, Species: RAT, Strain/Sex: F344/FEMALE, Target Tissue: Type of Lesion: COLON: ADENOMA, ADENOCARCINOMA, Dose [Carcinogen]: 150 MG/KG BW IN 0.9% SALINE ADJUSTED TO PH 6.8 ONCE, Promoter: NONE USED) 26%, 0%, 100%, p<0.05; (Carcinogen: 1,2-DIMETHYLHYDRAZINE, 540-73-8, Dose [Inhibitor]: 1% IN 20% FAT DIET DAILY STARTING 2 WK BEFORE CARCINOGEN TREATMENT AND CONTINUING FOR DURATION OF STUDY (STUDY DURATION:, Species: RAT, Strain/Sex: F344/FEMALE, Target Tissue: Type of Lesion: KIDNEY: NEPHROBLASTOMA, ADENOCARCINOMA, Dose [Carcinogen]: 150 MG/KG BW IN 0.9% SALINE ADJUSTED TO PH 6.8 ONCE, Promoter: NONE USED) 22%, 0%, 100%, p<0.05; (Carcinogen: 1,2-DIMETHYLHYDRAZINE, 540-73-8, Dose [Inhibitor]: 1% IN 20% FAT DIET DAILY STARTING 2 WK BEFORE START OF CARCINOGEN TREATMENT AND CONTINUING FOR DURATION OF STUDY (STUDY, Species: RAT, Strain/Sex: F344/FEMALE, Target Tissue: Type of Lesion: COLON: ADENOCARCINOMA, Dose [Carcinogen]: 20 MG/KG BW IN 0.9% SALINE 1/WK FOR 10 WK, Promoter: NONE USED) 33%, 39%, -18%, not significant; (Carcinogen: 1,2-DIMETHYLHYDRAZINE, 540-73-8, Dose [Inhibitor]: 1% IN 20% FAT DIET DAILY STARTING 2 WK BEFORE START OF CARCINOGEN TREATMENT AND CONTINUING FOR DURATION OF STUDY (STUDY, Species: RAT, Strain/Sex: F344/FEMALE, Target Tissue: Type of Lesion: COLON: ADENOMA, Dose [Carcinogen]: 20 MG/KG BW IN 0.9% SALINE 1/WK FOR 10 WK, Promoter: NONE USED) 42%, 39%, 7%, not significant; (Carcinogen: 1,2-DIMETHYLHYDRAZINE, 540-73-8, Dose [Inhibitor]: 1% IN 20% FAT DIET DAILY STARTING 2 WK BEFORE START OF CARCINOGEN TREATMENT AND CONTINUING FOR DURATION OF STUDY (STUDY, Species: RAT, Strain/Sex: F344/FEMALE, Target Tissue: Type of Lesion: DUODENUM: ADENOCARCINOMA, ADENOMA, Dose [Carcinogen]: 20 MG/KG BW IN 0.9% SALINE 1/WK FOR 10 WK, Promoter: NONE USED) 25%, 26%, -4%, not significant. Moreover, the “tumour outcome (control, treated, inhibition, significance)” value runs as follows: (Carcinogen: 1,2-DIMETHYLHYDRAZINE, 540-73-8, Dose [Inhibitor]: 1% IN 20% FAT DIET DAILY STARTING 2 WK BEFORE START OF CARCINOGEN TREATMENT AND CONTINUING FOR DURATION OF STUDY (STUDY, Species: RAT, Strain/Sex: F344/FEMALE, Target Tissue: Type of Lesion: EAR DUCT: SQUAMOUS CELL CARCINOMA, Dose [Carcinogen]: 20 MG/KG BW IN 0.9% SALINE 1/WK FOR 10 WK, Promoter: NONE USED) 13%, 13%, 0%, not significant; (Carcinogen: 1,2-DIMETHYLHYDRAZINE, 540-73-8, Dose [Inhibitor]: 1% IN 20% FAT DIET DAILY STARTING 2 WK BEFORE START OF CARCINOGEN TREATMENT AND CONTINUING FOR DURATION OF STUDY (STUDY, Species: RAT, Strain/Sex: F344/FEMALE, Target Tissue: Type of Lesion: KIDNEY: NEPHROBLASTOMA, ADENOCARCINOMA, Dose [Carcinogen]: 20 MG/KG BW IN 0.9% SALINE 1/WK FOR 10 WK, Promoter: NONE USED) 13%, 18%, -38%, not significant; (Carcinogen: 1,2-DIMETHYLHYDRAZINE, 540-73-8, Dose [Inhibitor]: 1.2% IN DIET DAILY STARTING 2 WK PRIOR TO CARCINOGEN TREATMENT AND CONTINUING FOR DURATION OF STUDY (STUDY DURATION: 28, Species: RAT, Strain/Sex: SPRAGUE-DAWLEY/MALE, Target Tissue: Type of Lesion: COLON: ADENOCARCINOMA, Dose [Carcinogen]: 20 MG/KG BW IN BACTERIOSTATIC SALINE 1/WK FOR 20 WK, Promoter: NONE USED) 64%, 38%, 41%, not calculated; (Carcinogen: 3-METHYLCHOLANTHRENE, 56-49-5, Dose [Inhibitor]: 0, 1.25% IN DRINKING WATER FOR DURATION OF STUDY BEGINNING 15 D PRIOR TO CARCINOGEN TREATMENT (STUDY DURATION: 150 D), Species: MOUSE, Strain/Sex: LACA/MALE, Target Tissue: Type of Lesion: GLANDULAR STOMACH: TUMOR, Dose [Carcinogen]: 2.2 MG (AVERAGE DOSE) ON COTTON THREADS IMPLANTED IN GLANDULAR STOMACH, Promoter: NONE USED) 66%, 28%, 58%, p<0.02; (Carcinogen: 3-METHYLCHOLANTHRENE, 56-49-5, Dose [Inhibitor]: 0, 2 MG/ML IN DRINKING WATER FOR 6 WK BEGINNING ON FIRST DAY OF CARCINOGEN TREATMENT (STUDY DURATION: 16 WK), Species: MOUSE, Strain/Sex: SWISS/FEMALE, Target Tissue: Type of Lesion: CERVIX: SQUAMOUS CELL CARCINOMA, Dose [Carcinogen]: 600 UG IN BEESWAX IMPREGNATED COTTON THREAD FOR DURATION OF STUDY, Promoter: NONE USED) 16/21 (76%), 5/15 (33%), 57%, p<0.02; (Carcinogen: 3-METHYLCHOLANTHRENE, 56-49-5, Dose [Inhibitor]: 0, 2 MG/ML IN DRINKING WATER FOR 10 WK BEGINNING 6 WK AFTER FIRST DAY OF CARCINOGEN TREATMENT (STUDY DURATION: 16 WK), Species: MOUSE, Strain/Sex: SWISS/FEMALE, Target Tissue: Type of Lesion: CERVIX: SQUAMOUS CELL CARCINOMA, Dose [Carcinogen]: 600 UG IN BEESWAX IMPREGNATED COTTON THREAD FOR DURATION OF STUDY, Promoter: NONE USED) 16/21 (76%), 8/12 (67%), 12%, not significant. The “tumour outcome (control, treated, inhibition, significance)” value is recorded as 16/21 (76%), 5/15 (33%), 57%, p<0.02 (Carcinogen: 3-METHYLCHOLANTHRENE, 56-49-5, Dose [Inhibitor]: 0, 2 MG/ML IN DRINKING WATER FOR 16 WK (STUDY DURATION: 16 WK), Species: MOUSE, Strain/Sex: SWISS/FEMALE, Target Tissue: Type of Lesion: CERVIX: SQUAMOUS CELL CARCINOMA, Dose [Carcinogen]: 600 UG IN BEESWAX IMPREGNATED COTTON THREAD FOR DURATION OF STUDY, Promoter: NONE USED) and 100%, 57%, 43%, p<0.001 (Carcinogen: 7,12-DIMETHYLBENZ[A]ANTHRACENE, 57-97-6, Dose [Inhibitor]: 0, 30 MG/ML IN DRINKING WATER FROM 40-90 D OF AGE THEN 0, 20 MG/ML FROM 90-180 D OF AGE AND 0, 10 MG/ML FROM 180-240 D O, Dose [Inhibitor]: 0, 30 MG/ML IN DRINKING WATER FROM 40-90 D OF AGE THEN 0, 20 MG/ML FROM 90-180 D OF AGE AND 0, 10 MG/ML FROM 180-240 D O, Species: RAT, Strain/Sex: SPRAGUE-DAWLEY/FEMALE, Target Tissue: Type of Lesion: MAMMARY GLAND: ADENOCARCINOMA, FIBROADENOMA, Dose [Carcinogen]: 5 MG IN 0.2 ML SESAME OIL 1/2 D FOR 12 D BEGINNING AT 50 D OF AGE, Promoter: NONE USED).
